Experimental data taken from patent US11390584B2, “1-cyano-pyrrolidine compounds as USP30 inhibitors” (Mission Therapeutics Limited, priority 2015, dated 2022).

Target: USP30 (Homo sapiens (Human), UniProt Q70CQ3)
Assay: USP30 biochemical FP or FI IC50 assay
Conditions: read-out: IC50 range
Procedure: In Vitro USP30 FP Inhibition Assay
USP30 Biochemical IC50 Assay
(§1) Dilution plates were prepared at 21 times the final concentration (2100 μM for a final concentration of 100 μM) in 50% DMSO in a 96-well polypropylene V-bottom plate (Greiner #651201). A typical 8-point dilution series would be 100, 30, 10, 3, 1, 0.3, 0.1, 0.03 μM final. Reactions were performed in duplicate in black 384 well plates (small volume, Greiner 784076) in a final reaction volume of 21 μl. Either 1 μl of 50% DMSO or diluted compound was added to the plate. USP30 was diluted in reaction buffer (40 mM Tris, pH 7.5, 0.005% Tween 20, 0.5 mg/ml BSA, 5 mM—beta-mercaptoethanol) to the equivalent of 0.05 µl/well and 10 μl of diluted USP30 was added to the compound. Enzyme and compound were incubated for 30 min at room temp. Reactions were initiated by the addition of 50 nM of TAMRA labelled peptide linked to ubiquitin via an iso-peptide bond as fluorescence polarisation substrate. Reactions were read immediately after addition of substrate and following a 2 hr incubation at room temperature. Readings were performed on a Pherastar Plus (BMG Labtech). λ Excitation 540 nm; λ Emission 590 nm.
In Vitro USP30 FI Inhibition Assay
USP30 Biochemical Fluorescence Intensity IC50 Assay
as §1, with “0.001 μl/well” for “0.05 µl/well”, “Ubiquitin-Rhodamine 110 (U-555; Boston Biochem) at a final concentration” for “50 nM”, “100 nM.” for “TAMRA labelled peptide linked to ubiquitin via an iso-peptide bond as fluorescence polarisation substrate.”, “h” for “hr”, “487” for “540”, “535” for “590”

Chain of USP30 (Q70CQ3 57-517): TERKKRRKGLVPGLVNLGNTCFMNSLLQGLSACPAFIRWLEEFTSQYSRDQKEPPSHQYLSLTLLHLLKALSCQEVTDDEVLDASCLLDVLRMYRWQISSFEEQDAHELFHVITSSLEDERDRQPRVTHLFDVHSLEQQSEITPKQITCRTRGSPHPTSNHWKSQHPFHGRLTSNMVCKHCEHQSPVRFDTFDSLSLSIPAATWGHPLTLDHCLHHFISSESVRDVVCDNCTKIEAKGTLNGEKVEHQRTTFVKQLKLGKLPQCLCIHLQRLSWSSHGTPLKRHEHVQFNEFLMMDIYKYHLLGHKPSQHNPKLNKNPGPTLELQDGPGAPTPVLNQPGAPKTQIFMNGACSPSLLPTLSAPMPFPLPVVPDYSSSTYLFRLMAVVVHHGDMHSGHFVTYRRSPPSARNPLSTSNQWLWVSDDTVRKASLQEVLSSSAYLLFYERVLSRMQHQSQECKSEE

Substance | IC50 [nM]
N-((R)-1-cyano pyrrolidin-3-yl)- ((2S,6R)-2,6- dimethyl morpholino)- 5-fluoroiso nicotinamide [Example 140] | 100 to 1000
N-(1-cyanopyrrolidin-3-yl)-6-(4- phenoxypiperidin-1- yl)nicolinamide [Example 22] | 100 to 1000
rac-(3aR, 6aR)-1-(3-phenyl-1II- pyrazole-5- carbonyl)hexahydropyrrolo[3,4- b]pyrrole-5(1H)-carbonitrile [Example 52] | 100 to 1000
(R)-N-(1-cyano pyrrolidin-3-yl)- 3-phenoxy azetidine- 1-carboxamide [Example 133] | 100 to 1000
(R)-3-(1H-benzo [d]imidazol-2-yl)- N-(1-cyano pyrrolidin-3- yl)azetidine-1- carboxamide [Example 134] | 100 to 1000
